± gives the expanded uncertainty stated by the source.
Settings: Liquid, Closed cell (Static) method

Row | Structure (SMILES) | vapor or sublimation pressure (258.15 K) [kPa] | vapor or sublimation pressure (268.15 K) [kPa] | vapor or sublimation pressure (278.15 K) [kPa] | vapor or sublimation pressure (288.15 K) [kPa]
1 | F/C=C/C(F)(F)F [trans-1,3,3,3-tetrafluoropropene] | 120.2 ± 1 | 179.3 ± 1 | 259.2 ± 1.1 | 364.2 ± 1.1
2 | CC(F)F [1,1-difluoroethane] | 148.6 ± 1 | 219.4 ± 1.1 | 314.1 ± 1.1 | 437.8 ± 1.2

Reference: the NIST ThermoML archive (doi:10.1016/j.fluid.2013.06.017)
